Assay [1] relates to vancomycin-resistant Enterococcus spp. (VRE). Kind of assay: Determination of MIC values (BHI broth, 96 well microtiter plate). The conditions noted are these: Enterococcus, VRE, BHI broth, read-out: MIC VREF. It counts as cell-based. How it is done: (§1) Stock solutions of compounds are prepared with a concentration of 10 mg/mL. These solutions are then diluted 1:4 to give a concentration of 2.5 mg/mL. The compounds are then serially diluted 1:2 for 6 iterations. The concentrations made for each compound are 2.5, 1.25, 0.625, 0.3125, 0.156, 0.078, and 0.039 mg/mL. A control sample (no compound) is run along with each compound tested. All dilutions are made in DMSO.
(§2) All wells of a 96 well microtiter plate are filled with 100 μL of BHI (Brain-Heart Infusion) broth. Columns on the plate are labeled 1-12, and rows are labeled A-H. Each column of wells is used to test one series of diluted compounds. Into each well of 100 μL of BHI broth, 1 μL of diluted compound is placed for a 1:100 dilution. This makes the final concentration of each drug series 25, 12.5, 6.25, 3.125, 1.56, 0.78, 0.39, and 0 μg/mL.
(§3) Test Organism: A sterile 15 mL screw cap tube is filled wth 3 mL of BHI broth. Next, 2-3 colonies of test organism are inoculated into the tube. The tube is then incubated at 37° C. in a CO2 (approx. 7%) atmosphere jar. The organisms are allowed to grow to the density of a 0.5 McFarland standard (10^8 cells/mL). The organism is then inoculated into each well of the microtiter plate containing the diluted compounds to be tested for MIC. The inoculum is 1 μL in volume and represents 10^5 to 10^6 cells/mL.
(§4) After inoculation the plates are covered and incubated at 37° C. and approx. 7-10% CO2 atmosphere overnight (about 16 hours). The plates are then observed for growth, the well with the lowest concentration of drug and no observable growth represents the well determining the MIC.

Assay [2] has as its system methicillin-resistant Staphylococcus aureus (MRSA). The description is as above. Format: cell-based. The conditions noted are these: Staphylococcus aureus, MRSA, BHI broth, read-out: MIC MRSA. How it is done:
as §1, §2, §3, §4

[3] abbreviates: 16 h, 37° C., overnight (about 16 hours).

Read-outs that look alike come from different tables or passages of the source. A value given as a limit tells only on which side of the number the result lay.

As usually defined, the MIC is the lowest concentration that inhibits growth of the organism. On to `O=C(Nc1ccccc1OC(F)(F)F)N1CCN(C(=O)c2cc(-c3c[nH]c4ccc(Br)cc34)nc3ccccc23)CC1` [Example 69], for which the MIC in assay [1] (setting [3]) and in assay [2] (setting [3]) was greater than 25 µg/mL throughout.

As to `NCCCNC(=O)c1cc(-c2c[nH]c3ccccc23)nc2ccccc12` [compound 1], the MIC in assay [1] (setting [3]) and in assay [2] (setting [3]) was greater than 25 µg/mL each time.

Regarding `NCc1cccc(CNC(=O)c2cc(-c3c[nH]c4ccc(Br)cc34)nc3ccc(Br)cc23)c1` [Example 125], the MIC in assay [1] (setting [3]) and in assay [2] (setting [3]) was less than 7 µg/mL in each case.

For the compound `N#Cc1ccc2[nH]cc(-c3ccc4ccccc4n3)c2c1` [Example 190], the MIC in assay [1] (setting [3]) and in assay [2] (setting [3]) was greater than 25 µg/mL throughout.

With `O=C(NCc1ccc(CNC(=O)c2cc(-c3c[nH]c4ccc(Br)cc34)nc3ccccc23)cc1)Nc1cc(C(F)(F)F)cc(C(F)(F)F)c1` [Example 90], the MIC in assay [1] (setting [3]) was less than 7 µg/mL; in assay [2] (setting [3]), less than 25 µg/mL.

On to `NCc1ccc(CNC(=O)c2cc(-c3ccsc3)nc3ccc(Br)cc23)cc1` [Example 83], for which the MIC in assay [1] (setting [3]) and in assay [2] (setting [3]) was greater than 25 µg/mL throughout.

For `COc1ccc2c(c1)c(-c1ccc3cc(Cl)ccc3n1)cn2C` [Example 214], the MIC in assay [1] (VREF, overnight 37° C.) was greater than 25 µg/mL; in assay [2] (overnight 37° C.) it was less than 25 µg/mL.

On to `O=C(O)c1cc(-c2c[nH]c3cccc(F)c23)nc2ccccc12` [Example 77], for which the MIC in assay [1] (setting [3]) and in assay [2] (setting [3]) was greater than 25 µg/mL each time.

With `NCc1ccc(CNC(=O)c2cc(-c3c[nH]c4ccccc34)nc3c(Cl)cccc23)cc1` [Example 160], the MIC in assay [1] (setting [3]) and in assay [2] (setting [3]) was less than 25 µg/mL in each case.

As for `Cc1cc2nc(-c3c[nH]c4ccc(Br)cc34)cc(C(=O)NCc3cccc(CN)c3)c2cc1C` [Example 129], the MIC in assay [1] (setting [3]) and in assay [2] (setting [3]) was less than 7 µg/mL in each case.

`Cc1c(-c2ccc3cc(Cl)ccc3n2)c2ccccc2n1C` [Example 215]: the minimal inhibitory concentration (MIC) in assay [1] (VREF, overnight 37° C.) is less than 25 µg/mL; in assay [2] (overnight 37° C.), less than 7 µg/mL.

For the compound `NC1CCC(NC(=O)c2cc(-c3c[nH]c4ccc(Br)cc34)nc3ccccc23)CC1` (stereo not shown) [Example 106], the MIC in assay [1] (setting [3]) and in assay [2] (setting [3]) was less than 25 µg/mL throughout.

In the case of `Cc1ccc2nc(-c3ccncc3)cc(C(=O)NCc3ccc(CN)cc3)c2c1` [Example 95], the MIC in assay [1] (setting [3]) and in assay [2] (setting [3]) was greater than 25 µg/mL each time.

As to `O=C(c1cc(-c2c[nH]c3ccc(Br)cc23)nc2ccc(Cl)cc12)N1CCCNCC1` [Example 135], the MIC in assay [1] (setting [3]) and in assay [2] (setting [3]) was less than 7 µg/mL throughout.

For `Cn1cc(-c2cc(C(=O)NCc3ccc(CN)cc3)c3cc(I)ccc3n2)c2cc(Br)ccc21` [Example 269], the MIC is less than 7 µg/mL in assay [1] (VREF, overnight 37° C.) and less than 7 µg/mL in assay [2] (overnight 37° C.).

For the compound `Cc1[nH]c2ccccc2c1-c1ccc2cc(Cl)ccc2n1` [Example 197], the results for the MIC in assay [1] (setting [3]) and in assay [2] (setting [3]) were greater than 25 µg/mL and less than 7 µg/mL, respectively.

As for `Fc1cccc2[nH]cc(-c3ccc4cc(Cl)ccc4n3)c12` [Example 192], the MIC in assay [1] (setting [3]) and in assay [2] (setting [3]) was greater than 25 µg/mL each time.

For the compound `NCc1ccc(CNC(=O)c2cc(-c3c[nH]c4ccc(Br)cc34)nc3ccc(C#CCN4CCC(Cc5ccccc5)CC4)cc23)cc1` [Example 75], the MIC in assay [1] (setting [3]) and in assay [2] (setting [3]) was greater than 25 µg/mL in each case.

Take `O=C(O)c1cc(-c2c[nH]c3ccc(Br)cc23)nc2ccccc12` [Example 27]: the MIC in assay [1] (setting [3]) and in assay [2] (setting [3]) was greater than 25 µg/mL each time.

Turning to `NCc1ccc(CNC(=O)c2cc(-c3c[nH]c4cccc(Cl)c34)nc3ccccc23)cc1` [Example 21], the MIC in assay [1] (setting [3]) and in assay [2] (setting [3]) was greater than 25 µg/mL each time.

With `NCc1ccc(CNC(=O)c2cc(-c3c[nH]c4ccc(Br)cc34)nc3ccc(CO)cc23)cc1` [Example 100], the MIC in assay [1] (setting [3]) and in assay [2] (setting [3]) was greater than 25 µg/mL each time.

With `COc1cc2c(-c3ccc4cc(Cl)ccc4n3)cn(C)c2cc1OC` [Example 222], the MIC in assay [1] (VREF, overnight 37° C.) is greater than 25 µg/mL; in assay [2] (overnight 37° C.) it was greater than 25 µg/mL.

Regarding `CNC1CCN(C(=O)c2cc(-c3c[nH]c4ccc(Br)cc34)nc3ccccc23)C1` (stereo not shown) [Example 60], the minimal inhibitory concentration (MIC) in assay [1] (setting [3]) and in assay [2] (setting [3]) was less than 25 µg/mL in each case.

For the origin of these results see patent US6376670B1, “Quinoline-indole antimicrobial agents, uses and compositions related thereto” (Sepracor Inc., priority 1997, dated 2002).
